Columns and labels:
[1] = cited from earlier work
[2] = Test Example 1: transmittance of emulsified composition (660 nm, optical path 10 mm); assay type: physicochemical; details: balance glycerol, 10000 rpm
Experimental: (§1) The transmittance of the emulsified composition produced in this example was determined as a transmittance for light having a wave length of 660 nm at a measurement optical path length of 10 mm using an ultraviolet-visible spectrophotometer UV-1800 (manufactured by Shimadzu Corporation). In the following test, a case where the transmittance was less than 40% was indicated by “C”, a case where the transmittance was 40% or greater and less than 80% was indicated by “B”, and a case where the transmittance was 80% or greater was indicated by “A”.
A solution having a composition of parts by weight shown in Table 1 (a solution in which the balance is glycerol and the total is 100 parts by weight) was prepared and heated at a heating temperature shown in Table 1 for 3 minutes using a block heater. During being heated, the solution was mixed using a polytron homogenizer at 10000 rpm. Thereafter, the solution was allowed to stand at room temperature (about 25° C.) and the temperature of the solution was lowered to room temperature (about 25° C.) to produce an emulsified composition, and the transmittance was measured.

[3] = Test Example 3: transmittance of emulsified composition (660 nm, optical path 10 mm); assay type: physicochemical; details: balance glycerol, 15000 rpm
Experimental: as §1
A solution having a composition of parts by weight shown in Table 3 (a solution in which the balance is glycerol and the total is 100 parts by weight) was prepared and heated at a heating temperature shown in Table 3 for 3 minutes using a block heater. During being heated, the solution was mixed using a polytron homogenizer at 15000 rpm. Thereafter, the solution was allowed to stand at room temperature (about 25° C.) and the temperature of the solution was lowered to room temperature (about 25° C.) to produce an emulsified composition, and the transmittance was measured.

[4] = Test Example 2: transmittance of emulsified composition (660 nm, optical path 10 mm); assay type: physicochemical; details: balance glycerol, heated 120° C. 3 min, 15000 rpm
Experimental: as §1
A solution having a composition of parts by weight shown in Table 2 (a solution in which the balance is glycerol and the total is 100 parts by weight) was prepared and heated at 120° C. for 3 minutes using a block heater. During being heated, the solution was mixed using a polytron homogenizer at 15000 rpm. Thereafter, the solution was allowed to stand at room temperature (about 25° C.) and the temperature of the solution was lowered to room temperature (about 25° C.) to produce an emulsified composition, and the transmittance was measured.

[5] = Urolithin A 0.1, Decaglyn 1-LF (HLB 15.5) 5 parts by weight, heated 100° C. 3 min
[6] = Urolithin A 0.1, Decaglyn 1-LF (HLB 15.5) 5 parts by weight, heated 120° C. 3 min
[7] = Urolithin A 0.1, RYOTO polyglyester L-7D (HLB 17.0) 5 parts by weight, heated 100° C. 3 min
[8] = Urolithin A 0.1, RYOTO polyglyester L-7D (HLB 17.0) 5 parts by weight, heated 120° C. 3 min

**Q.** Which oil solubility ([1]; background statement) does the source give for `O=c1oc2cc(O)ccc2c2ccc(O)cc12` [Urolithin A, urolithin A] here?
**A.** Its oil solubility is “low”.

**Q.** What about the “solubility in high-temperature vegetable oil or the like” value ([1]; background statement) of the same compound?
**A.** The value was “not soluble”.

**Q.** And the solubility in water ([1]; water at 30° C. (Patent Document 4))?
**A.** Its solubility in water is “about 3.5 mg/L”.

**Q.** What about the Transmittance results ([2]; Urolithin A 0.1, Decaglyn 1-LF (HLB 15.5) 5 parts by weight, heated 80° C. 3 min) of the same compound?
**A.** Its Transmittance results is “C (the transmittance was less than 40%)”.

**Q.** What about the Transmittance results [2, 5] of the same compound?
**A.** The Transmittance results was “C (the transmittance was less than 40%)”.

**Q.** What about the Transmittance results [2, 6] of the same compound?
**A.** The Transmittance results was “B (the transmittance was 40% or greater and less than 80%)”.

**Q.** What about the Transmittance results ([2]; Urolithin A 0.1, Decaglyn 1-MF (HLB 14.0) 5 parts by weight, heated 80° C. 3 min) of the same compound?
**A.** Its Transmittance results is “C (the transmittance was less than 40%)”.

**Q.** What about the Transmittance results ([2]; Urolithin A 0.1, Decaglyn 1-MF (HLB 14.0) 5 parts by weight, heated 100° C. 3 min) of the same compound?
**A.** Its Transmittance results is “C (the transmittance was less than 40%)”.

**Q.** And the Transmittance results ([2]; Urolithin A 0.1, Decaglyn 1-MF (HLB 14.0) 5 parts by weight, heated 120° C. 3 min)?
**A.** The Transmittance results was “B (the transmittance was 40% or greater and less than 80%)”.

**Q.** What about the Transmittance results ([2]; Urolithin A 0.1, Decaglyn 1-OVF (HLB 12.0) 5 parts by weight, heated 80° C. 3 min) of the same compound?
**A.** Its Transmittance results is “C (the transmittance was less than 40%)”.

**Q.** And the Transmittance results ([2]; Urolithin A 0.1, Decaglyn 1-OVF (HLB 12.0) 5 parts by weight, heated 100° C. 3 min)?
**A.** The Transmittance results was “C (the transmittance was less than 40%)”.

**Q.** What about the Transmittance results ([2]; Urolithin A 0.1, Decaglyn 1-OVF (HLB 12.0) 5 parts by weight, heated 120° C. 3 min) of the same compound?
**A.** The Transmittance results was “B (the transmittance was 40% or greater and less than 80%)”.

**Q.** And the Transmittance results ([2]; Urolithin A 0.1, RYOTO polyglyester L-7D (HLB 17.0) 5 parts by weight, heated 80° C. 3 min)?
**A.** The Transmittance results was “C (the transmittance was less than 40%)”.

**Q.** What about the Transmittance results [2, 7] of the same compound?
**A.** The Transmittance results was “C (the transmittance was less than 40%)”.

**Q.** What about the Transmittance results [2, 8] of the same compound?
**A.** The Transmittance results was “A (the transmittance was 80% or greater)”.

**Q.** What about the Transmittance results ([2]; Urolithin A 0.1, RYOTO polyglyester O-15D (HLB 13.0) 5 parts by weight, heated 80° C. 3 min) of the same compound?
**A.** Its Transmittance results is “C (the transmittance was less than 40%)”.

**Q.** And the Transmittance results ([2]; Urolithin A 0.1, RYOTO polyglyester O-15D (HLB 13.0) 5 parts by weight, heated 100° C. 3 min)?
**A.** The Transmittance results was “C (the transmittance was less than 40%)”.

**Q.** And the Transmittance results ([2]; Urolithin A 0.1, RYOTO polyglyester O-15D (HLB 13.0) 5 parts by weight, heated 120° C. 3 min)?
**A.** The Transmittance results was “B (the transmittance was 40% or greater and less than 80%)”.

**Q.** And the Transmittance results ([2]; Urolithin A 0.1, RYOTO polyglyester O-50D (HLB 7) 5 parts by weight, heated 80° C. 3 min)?
**A.** The Transmittance results was “C (the transmittance was less than 40%)”.

**Q.** And the Transmittance results ([2]; Urolithin A 0.1, RYOTO polyglyester O-50D (HLB 7) 5 parts by weight, heated 100° C. 3 min)?
**A.** Its Transmittance results is “C (the transmittance was less than 40%)”.

**Q.** What about the Transmittance results ([2]; Urolithin A 0.1, RYOTO polyglyester O-50D (HLB 7) 5 parts by weight, heated 120° C. 3 min) of the same compound?
**A.** Its Transmittance results is “C (the transmittance was less than 40%)”.

**Q.** What about the Transmittance results ([2]; Urolithin A 0.1, Sugar ester S-1170 (HLB about 11) 5 parts by weight, heated 80° C. 3 min) of the same compound?
**A.** Its Transmittance results is “C (the transmittance was less than 40%)”.

**Q.** What about the Transmittance results ([2]; Urolithin A 0.1, Sugar ester S-1170 (HLB about 11) 5 parts by weight, heated 100° C. 3 min) of the same compound?
**A.** Its Transmittance results is “C (the transmittance was less than 40%)”.

**Q.** And the Transmittance results ([2]; Urolithin A 0.1, Sugar ester S-1170 (HLB about 11) 5 parts by weight, heated 120° C. 3 min)?
**A.** Its Transmittance results is “C (the transmittance was less than 40%)”.

**Q.** What about the Transmittance results [3, 5] of the same compound?
**A.** Its Transmittance results is “C (the transmittance was less than 40%)”.

**Q.** And the Transmittance results ([3]; Urolithin A 0.1, Decaglyn 1-LF (HLB 15.5) 5 parts by weight, heated 105° C. 3 min)?
**A.** Its Transmittance results is “C (the transmittance was less than 40%)”.

**Q.** And the Transmittance results [3, 6]?
**A.** Its Transmittance results is “B (the transmittance was 40% or greater and less than 80%)”.

**Q.** What about the Transmittance results ([3]; Urolithin A 0.1, Decaglyn 1-LF (HLB 15.5) 50 parts by weight, heated 100° C. 3 min) of the same compound?
**A.** The Transmittance results was “C (the transmittance was less than 40%)”.

**Q.** And the Transmittance results ([3]; Urolithin A 0.1, Decaglyn 1-LF (HLB 15.5) 50 parts by weight, heated 105° C. 3 min)?
**A.** The Transmittance results was “A (the transmittance was 80% or greater)”.

**Q.** What about the Transmittance results ([3]; Urolithin A 0.1, Decaglyn 1-LF (HLB 15.5) 50 parts by weight, heated 120° C. 3 min) of the same compound?
**A.** Its Transmittance results is “A (the transmittance was 80% or greater)”.

**Q.** And the Transmittance results [3, 7]?
**A.** Its Transmittance results is “C (the transmittance was less than 40%)”.

**Q.** And the Transmittance results ([3]; Urolithin A 0.1, RYOTO polyglyester L-7D (HLB 17.0) 5 parts by weight, heated 105° C. 3 min)?
**A.** The Transmittance results was “C (the transmittance was less than 40%)”.

**Q.** And the Transmittance results [3, 8]?
**A.** Its Transmittance results is “A (the transmittance was 80% or greater)”.

**Q.** What about the Transmittance results ([3]; Urolithin A 0.1, RYOTO polyglyester L-7D (HLB 17.0) 50 parts by weight, heated 100° C. 3 min) of the same compound?
**A.** The Transmittance results was “C (the transmittance was less than 40%)”.

**Q.** And the Transmittance results ([3]; Urolithin A 0.1, RYOTO polyglyester L-7D (HLB 17.0) 50 parts by weight, heated 105° C. 3 min)?
**A.** The Transmittance results was “A (the transmittance was 80% or greater)”.

**Q.** What about the Transmittance results ([3]; Urolithin A 0.1, RYOTO polyglyester L-7D (HLB 17.0) 50 parts by weight, heated 120° C. 3 min) of the same compound?
**A.** Its Transmittance results is “A (the transmittance was 80% or greater)”.

**Q.** And the Transmittance results ([4]; Urolithin A 0.2, Decaglyn 1-LF (HLB 15.5) 5 parts by weight)?
**A.** Its Transmittance results is “C (the transmittance was less than 40%)”.

**Q.** What about the Transmittance results ([4]; Urolithin A 0.2, Decaglyn 1-LF (HLB 15.5) 10 parts by weight) of the same compound?
**A.** The Transmittance results was “B (the transmittance was 40% or greater and less than 80%)”.

**Q.** What about the Transmittance results ([4]; Urolithin A 0.2, Decaglyn 1-LF (HLB 15.5) 50 parts by weight) of the same compound?
**A.** The Transmittance results was “A (the transmittance was 80% or greater)”.

**Q.** What about the Transmittance results ([4]; Urolithin A 0.2, RYOTO polyglyester L-7D (HLB 17.0) 5 parts by weight) of the same compound?
**A.** The Transmittance results was “C (the transmittance was less than 40%)”.

**Q.** What about the Transmittance results ([4]; Urolithin A 0.2, RYOTO polyglyester L-7D (HLB 17.0) 10 parts by weight) of the same compound?
**A.** The Transmittance results was “B (the transmittance was 40% or greater and less than 80%)”.

**Q.** And the Transmittance results ([4]; Urolithin A 0.2, RYOTO polyglyester L-7D (HLB 17.0) 50 parts by weight)?
**A.** Its Transmittance results is “A (the transmittance was 80% or greater)”.

**Q.** And the Transmittance results ([4]; Urolithin A 0.5, RYOTO polyglyester L-7D (HLB 17.0) 50 parts by weight)?
**A.** Its Transmittance results is “A (the transmittance was 80% or greater)”.

Source: patent US20250302746A1, “METHOD FOR PRODUCING EMULSIFIED COMPOSITION” (Daicel Corporation, priority 2022, published 2025)
